Peptide text beside a SMILES is read from it. * marks the point of attachment. X1 = CC(C)CCCCCCCCCCCCC(=O)*
Key:
[1] = test system: A. brassicicola MTCC 2102; assay: MIC against phytopathogenic fungi, 96-well microtiter plate method; format: cell-based, Alternaria brassicicola; conditions: PDB
Method: (§1) The antimicrobial activity of HPLC purified compounds was determined against various test strains including S. aureus MTCC 1430, Vibrio cholera MTCC 3904, Bacillus subtilis MTCC 121, Listeria monocytogenes MTCC 839, C. albicans MTCC 183, C. albicans MTCC 1637, C. albicans MTCC 227, C. tropicalis MTCC 184, C. glabrata MTCC 3019, and C. inconspicua MTCC 1074. Antimicrobial activity was also tested against clinical Candida strains and phytopathogenic fungi viz. Fusarium moniliforme MTCC 158, Alternaria brassicicola MTCC 2102 and Colletotrichum acutatum MTCC 1037. Bacterial and Candida test strains were grown in NB and yeast malt broth (YMB), respectively. Fungal test strains were grown in potato dextrose broth (PDB). Minimum inhibitory concentrations (MICs) of purified compounds were evaluated against test organisms by using a microtiter plate dilution assay. Mid-log-phase test strains (5 × 10^5 CFU/ml) were incubated in a 96-well plate with different concentrations of the lipopeptides for 24–48 h at 37°C (final volume of 200 μl). OD was measured at 600 nm after 24 and 48 h for bacteria and yeast, respectively, using an ELISA microplate reader (Thermo Scientific, United States). MIC against phytopathogenic fungi was determined using the 96-well microtiter plate method ([Sharma et al., 2020]).

[2] = test system: C. auris 470126; assay: MIC, microtiter plate dilution assay, clinical strain; format: cell-based; conditions: YMB, 37°C, OD 600 nm after 48 h
Method: (§2) Brevibacillus sp. strains GI-9 and SKDU10 were known to produce class IId bacteriocins identified as laterosporulins a ([Singh et al., 2012]; [Baindara et al., 2016]). Both strains were grown on nutrient agar (NA, Himedia, India). All test strains used in this study were obtained from Microbial Type Culture Collection and Gene bank (MTCC), Chandigarh, India. Clinical Candida strains were obtained from the National Culture Collection of Pathogenic Fungi (NCCPF), PGIMER, Chandigarh, India, and all strains were grown on recommended media.
as §1

[3] = test system: C. tropicalis 420024; assay: as above; format: cell-based; conditions: YMB, 37°C, OD 600 nm after 48 h
Method: as §2, §1

[4] = test system: C. haemulonii 470125; assay: as above; format: cell-based; conditions: YMB, 37°C, OD 600 nm after 48 h
Method: as §2, §1

[5] = test system: C. kefyr 410004; assay: as above; format: cell-based; conditions: YMB, 37°C, OD 600 nm after 48 h
Method: as §2, §1

[6] = test system: S. aureus MTCC 1430; format: cell-based, Staphylococcus aureus; conditions: MTCC 1430, 24 h
Method: as §1

Compound | MIC value [1] | MIC value [2] | MIC value [3] | MIC value [4] | MIC value [5] | MIC value [6]
Dhb-Tyr-Orn-Ile-Val-Val-Lys-Val-Leu-Asp-Val-Glu [BLL, bogorol like lipopeptide purified from Brevibacillus sp. strain SKDU10; 12 amino acids and C17 hydroxy fatty acid side chain] | 500 to 520 µg/mL | 140 to 160 µg/mL | 300 to 320 µg/mL | 245 to 255 µg/mL | 190 to 210 µg/mL | –
CC(C)CCCCCCCCCCCCC(=O)N[C@H](C(=O)NCC(=O)N[C@@H](C)C(=O)N[C@@H](CO)C(=O)N[C@@H](Cc1c[nH]cn1)C(=O)N[C@@H](CCC(N)=O)C(=O)N[C@@H](CCC(N)=O)C(=O)O)[C@@H](C)O [ILL] (X1-TGASHQQ-OH; N-terminus assumed) | – | – | – | – | – | 150 to 170 µg/mL

Source: PMC8589628, “Characterization and Antimicrobial Studies of Iturin-Like and Bogorol-Like Lipopeptides From Brevibacillus spp. Strains GI9 and SKDU10” (Frontiers in Microbiology, 2021)
